The record followed here is patent publication US4254278A, “1-Descarboxy-1-ketoester (ketoacid)-prostaglandins” (American Cyanamid Company, priority 1979, dated 1981).

The structures appear in SMILES notation.

What all share (assay type): in vivo, guinea pigs
Experiment [1] concerns bronchospasms elicited by histamine. Put plainly: Bronchodilator activity against histamine-induced bronchospasm (Konzett procedure). Particulars: guinea pig; histamine spasmogen; three logarithmic cumulative intravenous doses. As to the method:
(§1) The compounds of this invention are useful as bronchodilators for the treatment of asthma and chronic bronchitis. Bronchodilator activity is determined in guinea pigs against bronchospasms elicited by intravenous injections of 5-hydroxytryptamine, histamine or acetylcholine by the Konzett procedure. [See J. Lulling, P. Lievens, F. El Sayed and J. Prignot, Arzneimittel-Forschung, 18, 955 (1968).]
(§2) In Table which follows bronchodilator activity for representative compounds of this invention against one or more of three spasmogenic agents is expressed as an ED50 determined from the results obtained with three logarithmic cummulative intravenous doses. In this assay, these compounds of this invention provide an effect of longer duration than does natural 1-PGE1 or 1-PGE2.

Experiment [2] has as its system bronchospasms elicited by 5-hydroxytryptamine. Description: Bronchodilator activity against 5-hydroxytryptamine-induced bronchospasm (Konzett procedure). Particulars: guinea pig; 5-hydroxytryptamine spasmogen; three logarithmic cumulative intravenous doses. As to the method:
as §1, §2

Experiment [3] relates to bronchospasms elicited by acetylcholine. Put plainly: Bronchodilator activity against acetylcholine-induced bronchospasm (Konzett procedure). The following applies: guinea pig; acetylcholine spasmogen; three logarithmic cumulative intravenous doses. On the procedure:
as §1, §2

`CCCCC(C)(O)C/C=C/C1C(O)CC(=O)C1/C=C\CCCCC(=O)C(=O)OCC` (stereo not drawn) [d1-1,9-dioxo-1-carbethoxy-11α,16-dihydroxy-16-methyl-6-cis-13-trans-prostadiene]: in experiment [1], the “ED50 HIST.” value was 9310 Mg/kg × 10^-6. In experiment [2], the “ED50 5HT” value was 9510 Mg/kg × 10^-6. In addition, the “ED50 ACH” value in experiment [3] is recorded as 5920 Mg/kg × 10^-6.
The corresponding values for `CCCCCC(C)(O)/C=C/C1C(O)CC(=O)C1CCCCCCC(=O)C(=O)OCC` (stereo not drawn) [d1-1,9-dioxo-1-carbethoxy-11α,15-dihydroxy-15-methyl-13-trans-prostene] are 6050 Mg/kg × 10^-6, 4220 Mg/kg × 10^-6 and more than 3.2 Mg/kg × 10^-6.
